According to patent publication US6989143B1, “Depletion method of blood plasma ascorbate” (priority 2000, dated 2006):

Columns and labels:
[1] = Plasma ascorbate level in mice given sodium ascorbate or L-gulono-γ-lactone (HPLC-ECD); settings: 5 mmole/kg, intraperitoneal
Method: Time-dependent changes of plasma ascorbate level in mice given sodium ascorbate (-o-) and L-gulono-γ-lactone (-•-). Drugs were dissolved in distilled water and administered by intraperitoneal injections, both at 5 mmole/kg. Blood was taken from each animal time-sequentially for the assay of plasma ascorbate with HPLC-ECD, as described in MATERIALS AND METHODS. Zero time control animals were given 0.2 ml of normal saline. Data represent Mean±SD (n=3−5).
Specific pathogen-free female BALB/c mice (body weight, ca. 25 g) were used in the present study. Animals were obtained from Dae-Han Laboratory Animal Center (Daejeon, Korea) and cared for according to the ILAR guidelines in the animal care facility of Samsung Biomedical Research Center (Seoul, Korea). They were fed a diet from Jell Laboratory Chow (Seoul, Korea). Feed and water were offered ad libitum.
The animal was anesthetized with diethyl ether vapour and blood was obtained by choroidal venous plexus. About one ml of blood was collected into a microcentrifuge tube that contained 50 μl of 130 mM sodium citrate as an anticoagulant. […] The ascorbate content in the supernatant was measured directly by HPLC method. An aliquot of the sample was treated with 100 mM dithiothreitol at neutral pH to reduce dehydroascorbate to ascorbate, and then total ascorbate content was measured. […]

leukemic cells = settings: in vitro, small number of patients; cited from earlier work
[2] = tested on: pre-leukemia, or myelodysplastic syndromes(MDS); settings: in vitro; cited from earlier work

Compound	return of accumulated plasma ascorbate to normal levels [1]	fraction of patients whose leukemic cell growth was modulated by LAA (leukemic cells)	share of MDS showing growth enhancement with LAA [2] [%]	share of MDS showing growth suppression with LAA [2] [%]
O=C1O[C@H]([C@@H](O)CO)C([O-])=C1O.[Na+] [ascorbate, Sodium ascorbate]	rapidly diminished to normal levels within a few hours	–	–	–
O=C1O[C@H]([C@@H](O)CO)C(O)=C1O [LAA, L-ascorbic acid]	–	approximately ½	30	16
